Entries after “also recorded” stand apart in the source; their conditions may differ.
Key:
phospho-AKT (Ser473) = assay: Reduction of pAKT in T-cell lymphoma cell lines (Western blotting); type: cell-based; settings: Western blot normalized to actin, FIG. 2
Description: AKT, a serine threonine kinase mediates the downstream effects of PI3K activity and modulates several cell processes including survival and growth. Reduction of pAKT by Compound (A) in representative cell lines was determined by Western blotting using a phospho-AKT (Ser^473) antibody. Band intensity was measured and quantified using ImageJ software and normalized to actin.

caspase-3 = assay: Induction of caspase 3 in T-lymphoma cell lines; type: cell-based; settings: 48 h incubation, fluorimetric; FIG. 3
Description: Cells (Jurkat, MOLT-4, CCRF-CEM, HuT-78 and HuT-102) were incubated with desired concentrations of Compound (A) for 48 h. An equal number of cells per well (0.3×10^6 cells) were used. Increase in apoptosis manifested by an elevation in caspase-3 levels was determined using a Caspase-3 kit from Millipore. Induction of Caspase 3 by Compound A was measured fluorimetrically.

[1] = test system: T-cell lymphoma cell lines (Jurkat, MOLT-4, CCRF-CEM, HuT-78, HuT-102, Sez4 and HH); assay: Anti-proliferative effect in T-cell lymphoma cell lines (MTT assay); type: cell-based; settings: 48-72 h incubation, FIG. 1
Description: Compound (A) was tested across a panel of T-cell lymphoma cell lines (Jurkat, MOLT-4, CCRF-CEM, HuT-78, HuT-102, Sez4 and HH). Cells were plated in 96-well plates and incubated with desired concentrations of Compound A for 48-72 h. At the end of the incubation period, MTT ((3-(4,5-dimethylthiazol-2-yl)-2,5-diphenyltetrazolium bromide)) was added. The plate was placed on a shaker for 5 min to mix the formazan and the optical density at 560 nm was measured on a spectrophotometer. Data were plotted using Graphpad prism for calculation of the IC50 concentrations.

[2] = test system: Malignant T cells from Cutaneous T-cell Lymphoma (CTCL) patient donors; assay: Apoptosis by Annexin V/PI staining in purified malignant T-cells from CTCL donors; type: cell-based, human; settings: CTCL donors n=4, 48 h, FIG. 5
Description: (§1) The effect of Compound (A) on pAKT in patient-derived primary cells was also studied. Malignant T cells from Cutaneous T-cell Lymphoma (CTCL) patient donors (n=6) were purified using fluorescence-activated cell sorting (FACS) and cultured overnight in RPMI/1% BSA. Cells were incubated with desired concentrations of Compound (A) for 1.5 h followed by activation with a cytokine mixture (20 ng/ml IL2+5 ng/ml IL7+10 ng/ml IL15+10% FBS) for 30 min. pAKT was estimated using Phosphoflow and normalized to total AKT. Data were analyzed using Prism 5.0 software analysis. For apoptosis assays, FACS purified cells from CTCL donors (n=4) were cultured in RPMI/10% FBS+20 ng/ml IL2+5 ng/ml IL7+10 ng/ml IL15 with and without Compound (A), LY294002, or camptothecin for 48 h. Apoptosis was assayed by Annexin V/PI staining.

[3] = test system: relapsed or refractory T-cell lymphoma; assay: Phase I/Ib study in patients with relapsed or refractory T-cell lymphoma (PTCL and CTCL); type: in vivo, human; settings: for ORR (objective response rate) / ORR (objective response rate), patients: oral BID
Description: This is a Phase I/Ib, 3+3 design study in patients with relapsed or refractory T-cell lymphoma
Compound (A) (tenalisib) was given orally twice a day in 28-day cycles and dose-limiting toxicities (DLTs) were assessed during the first cycle.
Intra-patient dose escalation was allowed following safety of higher doses. • Primary Objectives: The Safety, Pharmacokinetics (PK), Maximum Tolerated Dose (MTD) • Secondary Objectives: Pharmacodynamics, Overall response rate (ORR), Duration of response (DOR)
Histologically confirmed T-cell Non-Hodgkin's lymphoma.
Relapsed after, or refractory to ≥1 prior treatments, and not eligible for transplantation and or approved therapy; ECOG performance status ≤2; patient with measurable or evaluable disease; Adequate organ system function: ANC ≥750/μL; platelets ≥50 K/μL.
Prior therapy that inhibits PI3K/BTK/mTOR were part of exclusion criteria.

[4] = test system: MOLT-4 (human T lymphoblast cell line) xenograft; assay: MOLT-4 subcutaneous mouse xenograft model; type: in vivo
Description: The anti-tumor effect of Compound (A) was determined in a MOLT-4 (representing human T lymphoblast cell line) subcutaneous mouse xenograft model. Briefly, 10^6 cells were injected into the flank region. Mice were randomized according to body weight into […] groups of five. A week after tumor cell injection, mice either received the vehicle, oral administration of Compound (A) at 50 mg/kg/BID Compound (A), or administration of cytarabine (Ara-C), over an 18-day study period. At the end of the study period, animals were sacrificed and the tumors harvested.

pAKT = pAKT in patient-derived primary malignant T cells (Phosphoflow); type: cell-based, human; settings: CTCL donors n=6, 1.5 h incubation then cytokine activation 30 min; FIG. 4
Description: as §1

SMILES: CC[C@H](Nc1ncnc2[nH]cnc12)c1oc2ccccc2c(=O)c1-c1cccc(F)c1 [Compound (A), (S)-2-(1-((9H-purin-6-yl)amino)propyl)-3-(3-fluorophenyl)-4H-chromen-4-one]
- endogenous pAKT expression (phospho-AKT (Ser473)): dose-dependent reduction
- caspase-3 induction (caspase-3): dose-dependent increase in caspase-3
- proliferation / growth of T-lymphoma cell lines [1]: dose-dependent reduction in proliferation
- apoptosis in purified malignant T-cells [2]: dose-dependent increases in apoptosis
- CR (complete response) ([3]; All, 58 treated/35 evaluable): (9) %
- CR (complete response), patients ([3]; All, 58 treated/35 evaluable): 3 n
- DCR (CR + PR + SD) ([3]; All, 58 treated/35 evaluable): 74%
- DCR (CR + PR + SD), patients ([3]; All, 58 treated/35 evaluable): 26 n
- PD (progressive disease) ([3]; All, 58 treated/35 evaluable): 23%
- PD (progressive disease), patients ([3]; All, 58 treated/35 evaluable): 8 n
- PR (partial response) ([3]; All, 58 treated/35 evaluable): (37) %
- PR (partial response), patients ([3]; All, 58 treated/35 evaluable): 13 n
- ORR (objective response rate) ([3]; All, 58 treated/35 evaluable): (46) %
- ORR (objective response rate), patients ([3]; All, 58 treated/35 evaluable): 16 n
- DCR (CR + PR + SD) ([3]; CTCL, 30 treated/20 evaluable): 80%
- DCR (CR + PR + SD), patients ([3]; CTCL, 30 treated/20 evaluable): 16 n
- PD (progressive disease) ([3]; CTCL, 30 treated/20 evaluable): 20%
- PD (progressive disease), patients ([3]; CTCL, 30 treated/20 evaluable): 4 n
- PR (partial response) ([3]; CTCL, 30 treated/20 evaluable): (45) %
- PR (partial response), patients ([3]; CTCL, 30 treated/20 evaluable): 9 n
- ORR (objective response rate) ([3]; CTCL, 30 treated/20 evaluable): (45) %
- ORR (objective response rate), patients ([3]; CTCL, 30 treated/20 evaluable): 9 n
- CR (complete response) ([3]; PTCL, 28 treated/15 evaluable): (20) %
- CR (complete response), patients ([3]; PTCL, 28 treated/15 evaluable): 3 n
- DCR (CR + PR + SD) ([3]; PTCL, 28 treated/15 evaluable): 74%
- DCR (CR + PR + SD), patients ([3]; PTCL, 28 treated/15 evaluable): 10 n
- PD (progressive disease) ([3]; PTCL, 28 treated/15 evaluable): 27%
- PD (progressive disease), patients ([3]; PTCL, 28 treated/15 evaluable): 4 n
- PR (partial response) ([3]; PTCL, 28 treated/15 evaluable): (27) %
- PR (partial response), patients ([3]; PTCL, 28 treated/15 evaluable): 4 n
- ORR (objective response rate) ([3]; PTCL, 28 treated/15 evaluable): (47) %
- ORR (objective response rate), patients ([3]; PTCL, 28 treated/15 evaluable): 7 n
- tumor growth ([4]; 50 mg/kg BID oral, 18-day study period, vs vehicle, FIG. 6): significantly delayed tumor growth; also recorded: significant delay in tumor growth
- tolerability (body weight, adverse effects) ([4]; mice, daily dose of 50 mg/kg): without body weight loss or noticeable adverse effects
- inhibition of pAKT in purified malignant T-cells (pAKT): dose-dependent inhibition of pAKT

From patent US20200289520A1, “COMPOSITION AND METHOD FOR TREATING PERIPHERAL T-CELL LYMPHOMA AND CUTANEOUS T-CELL LYMPHOMA” (Rhizen Pharmaceuticals SA, priority 2017, published 2020)
